From US12338236B2, “Benzoisothiazole and benzoisoxazole compounds for the treatment of mental disorders” (SUVEN LIFE SCIENCES LIMITED, priority 2022, dated 2025)
Structures can show the parent of a compound that is named as a salt.

Tests used:
DOPA levels in striatum = experiment: Reserpine-induced DOPA accumulation; format: in vivo, Male Wistar rats; conditions: rats, s.c.
Procedure: Example-53: Reserpine-Induced DOPA Accumulation
Male Wistar rats were pretreated with reserpine (5 mg/kg, s.c.) approximately 18 h before sacrifice and were thereafter fasted until sacrifice. Example-2 (3 mg/kg, p.o.) and (3-(3-hydroxyphenyl)-N-n-propylpiperidine (3-PPP); 30 mg/kg, s.c.) were administered 1.16 h and 1 h, respectively before sacrifice. Haloperidol (0.5 mg/kg, s.c.) was used as a positive control and was dosed 10 min prior to 3-PPP in a separate group of animals. 3-Hydroxybenzylhydrazine dihydrochloride (NSD-1015; 100 mg/kg, s.c.) was then administered 0.5 h before sacrifice. Each rat was sacrificed, brain was removed and then striatum was isolated. The tissue was immediately weighed and homogenized in 0.1 N perchloric acid by means of an ultrasonic disruptor while being cooled in ice. The homogenate was centrifuged at 4° C. at 20,000 g for 15 min. The supernatant was assayed for dihydroxyphenylalanine (DOPA) levels using HPLC-ECD.

[1] = molecular target: T1, human histamine H1 receptor (Homo sapiens, UniProt P35367); experiment: Determination of Ki values at histamine H1 receptor ([3H]-Pyrilamine SPA binding); conditions: hH1, CHO-K1, [3H]-Pyrilamine 2 nM
T1 construct: expressed in transfected cells; host or cells: CHO-K1
T1 sequence (P35367 whole entry): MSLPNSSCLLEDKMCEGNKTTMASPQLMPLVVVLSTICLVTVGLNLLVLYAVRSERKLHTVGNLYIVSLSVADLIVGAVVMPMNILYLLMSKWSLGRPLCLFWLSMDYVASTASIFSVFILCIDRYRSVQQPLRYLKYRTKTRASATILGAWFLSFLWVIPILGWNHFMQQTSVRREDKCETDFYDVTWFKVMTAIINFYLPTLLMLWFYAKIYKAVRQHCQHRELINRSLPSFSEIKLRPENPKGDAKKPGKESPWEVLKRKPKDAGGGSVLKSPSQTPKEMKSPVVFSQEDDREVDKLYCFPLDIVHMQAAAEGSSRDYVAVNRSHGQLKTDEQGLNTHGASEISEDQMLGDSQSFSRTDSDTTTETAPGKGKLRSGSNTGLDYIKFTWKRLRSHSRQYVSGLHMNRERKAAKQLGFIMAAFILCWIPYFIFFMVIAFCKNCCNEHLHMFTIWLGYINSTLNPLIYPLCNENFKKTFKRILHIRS
Procedure: Example-48: Determination of Ki values at Histamine H1 receptor
• Receptor source: Recombinant mammalian cells (CHO-K1) • Radioligand: [^3H]-Pyrilamine (20.7 Ci/mmol) • Final ligand concentration: 2 nM • Non-specific determinant: 0.1 mM Pyrilamine • Reference compound: Pyrilamine • Positive control: Pyrilamine Incubation conditions: Reactions were carried out in buffer with pH 7.4 containing 67 mM Tris-HCl and SPA beads (0.1 mg/well) for 1 h at 37° C. Radioactivity proximal to SPA beads was determined by scintillation proximity assay and compared to the control values in order to ascertain any interactions of the test compound(s) with cloned human histamine H1 receptor binding site.

human 5-HT2A receptor = molecular target: T2, human 5-HT2A receptor (Homo sapiens, UniProt P28223); experiment: Determination of Ki values at 5-HT2A receptor ([3H]-Ketanserine radioligand binding); conditions: h5-HT2A, CHO-K1, [3H]-Ketanserine 1.25 nM
T2 construct: expressed in transfected cells; host or cells: CHO-K1
T2 sequence (P28223 whole entry): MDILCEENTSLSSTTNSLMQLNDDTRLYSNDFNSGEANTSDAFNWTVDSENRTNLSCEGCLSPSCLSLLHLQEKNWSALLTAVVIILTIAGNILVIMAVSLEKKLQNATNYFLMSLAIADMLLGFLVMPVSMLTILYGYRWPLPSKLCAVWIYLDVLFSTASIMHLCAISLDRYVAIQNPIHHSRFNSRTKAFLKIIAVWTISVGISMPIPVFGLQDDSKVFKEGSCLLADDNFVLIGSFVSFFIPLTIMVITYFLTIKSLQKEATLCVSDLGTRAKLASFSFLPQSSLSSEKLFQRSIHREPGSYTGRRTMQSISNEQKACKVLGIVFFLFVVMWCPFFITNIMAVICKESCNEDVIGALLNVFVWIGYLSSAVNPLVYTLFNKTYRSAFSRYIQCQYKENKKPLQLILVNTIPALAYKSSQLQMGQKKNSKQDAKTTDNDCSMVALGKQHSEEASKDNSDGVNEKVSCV
Procedure: Example-44: Determination of Ki Values at 5-HT2A Receptor
• Receptor source: Recombinant mammalian cells (CHO-K1) • Radioligand: [^3H]-Ketanserine (41.9 Ci/mmol) • Final ligand concentration: 1.25 nM • Non-specific determinant: 0.1 mM 1-Napthyl piperazine (1-NP) • Reference compound: 1-Napthyl piperazine (1-NP) • Positive control: 1-Napthyl piperazine (1-NP) Incubation conditions: Reactions were carried out in buffer with pH 7.4 containing 50 mM Tris-HCl, 4 mM CaCl2, 0.1% Ascorbic acid for 1 h at RT. The reaction was terminated by rapid vacuum filtration onto the glass fiber filters. Radioactivity trapped onto the filters was determined and compared to the control values in order to ascertain any interactions of the test compound(s) with cloned human 5-HT2A receptor binding site.

human SERT = molecular target: T3, human SERT (Homo sapiens, UniProt P31645); experiment: Determination of Ki values at SERT receptor ([3H]-Citalopram SPA binding); conditions: hSERT, HEK293, [3H]-Citalopram 2 nM
T3 construct: expressed in transfected cells; host or cells: HEK293
T3 sequence (P31645 whole entry): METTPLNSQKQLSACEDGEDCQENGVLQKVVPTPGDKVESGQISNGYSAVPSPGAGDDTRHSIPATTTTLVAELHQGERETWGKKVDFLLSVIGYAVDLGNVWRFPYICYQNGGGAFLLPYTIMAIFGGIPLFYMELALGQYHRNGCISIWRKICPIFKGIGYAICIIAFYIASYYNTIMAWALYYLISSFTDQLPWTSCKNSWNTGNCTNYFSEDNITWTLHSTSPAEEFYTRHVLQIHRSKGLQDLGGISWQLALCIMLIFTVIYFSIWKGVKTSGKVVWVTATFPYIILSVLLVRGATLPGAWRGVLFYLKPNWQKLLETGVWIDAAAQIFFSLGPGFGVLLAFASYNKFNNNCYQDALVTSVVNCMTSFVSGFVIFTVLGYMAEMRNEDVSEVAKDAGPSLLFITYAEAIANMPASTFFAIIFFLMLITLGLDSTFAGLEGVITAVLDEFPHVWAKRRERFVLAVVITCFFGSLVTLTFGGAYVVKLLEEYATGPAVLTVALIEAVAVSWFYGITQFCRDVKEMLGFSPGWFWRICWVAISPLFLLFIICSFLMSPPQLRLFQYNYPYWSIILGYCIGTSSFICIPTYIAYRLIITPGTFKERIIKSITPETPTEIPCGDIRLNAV
Procedure: Example-46: Determination of Ki Values at SERT Receptor
• Receptor source: Recombinant mammalian cells (HEK293) • Radioligand: [^3H]-Citalopram (80.8 Ci/mmol) • Final ligand concentration: 2 nM • Non-specific determinant: 0.1 mM Venlafaxine • Reference compound: Venlafaxine • Positive control: Venlafaxine Incubation conditions: Reactions were carried out in buffer with pH 7.4 containing 50 mM Tris-HCl, 150 mM NaCl, 5 mM KCl and Scintillation proximity assay (SPA) beads (0.1 mg/well) for 3 h at RT. Radioactivity proximal to SPA beads was determined by scintillation proximity assay and compared to the control values in order to ascertain any interactions of the test compound(s) with cloned human SERT receptor binding site.

[2] = molecular target: T4, human adrenergic α1B receptor (Homo sapiens, UniProt P35368); experiment: Determination of Ki values at adrenergic α1B receptor ([3H]-Prazosin radioligand binding); conditions: hα1B, Chem-1 cells, [3H]-Prazosin 1 nM; read-out: Ki Alpha1B
T4 construct: expressed in transfected cells; host or cells: Chem-1
T4 sequence (P35368 1-520): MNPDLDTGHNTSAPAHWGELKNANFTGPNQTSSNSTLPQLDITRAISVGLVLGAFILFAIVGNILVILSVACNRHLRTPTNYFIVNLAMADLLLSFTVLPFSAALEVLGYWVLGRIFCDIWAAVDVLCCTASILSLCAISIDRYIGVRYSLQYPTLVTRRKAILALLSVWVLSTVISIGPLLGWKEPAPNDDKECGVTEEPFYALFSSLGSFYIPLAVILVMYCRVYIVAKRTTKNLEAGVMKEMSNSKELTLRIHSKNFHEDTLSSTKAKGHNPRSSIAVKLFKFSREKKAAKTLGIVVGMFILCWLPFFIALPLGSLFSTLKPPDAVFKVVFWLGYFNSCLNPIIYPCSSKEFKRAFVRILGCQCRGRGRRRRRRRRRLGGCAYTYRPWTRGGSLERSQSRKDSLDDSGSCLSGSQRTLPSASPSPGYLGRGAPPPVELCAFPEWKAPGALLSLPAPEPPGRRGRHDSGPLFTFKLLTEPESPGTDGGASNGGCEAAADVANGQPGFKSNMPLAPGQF
Procedure: Example-47: Determination of Ki Values at Adrenergic α1B Receptor
• Receptor source: Recombinant mammalian cells (Chem-1) • Radioligand: [^3H]-Prazosin (77.4 Ci/mmol) • Final ligand concentration: 1 nM • Non-specific determinant: 0.1 mM Prazosin • Reference compound: Prazosin • Positive control: Prazosin Incubation conditions: Reactions were carried out in buffer with pH 7.4 containing 67 mM Tris-HCl, 67 μM EDTA, […] for 1 h at RT. The reaction was terminated by rapid vacuum filtration onto the glass fiber filters. Radioactivity trapped onto the filters was determined and compared to the control values in order to ascertain any interactions of the test compound(s) with cloned human adrenergic α1B receptor binding site.

[3] = molecular target: T5, human dopamine D2s receptor (Homo sapiens, UniProt P14416); experiment: Determination of Ki values at D2S receptor ([3H]-Raclopride radioligand binding); conditions: hD2 (D2S), CHO-K1, [3H]-Raclopride 4 nM; read-out: Ki D2
T5 construct: expressed in transfected cells; host or cells: CHO-K1
T5 sequence (P14416 1-414 isoform P14416-2): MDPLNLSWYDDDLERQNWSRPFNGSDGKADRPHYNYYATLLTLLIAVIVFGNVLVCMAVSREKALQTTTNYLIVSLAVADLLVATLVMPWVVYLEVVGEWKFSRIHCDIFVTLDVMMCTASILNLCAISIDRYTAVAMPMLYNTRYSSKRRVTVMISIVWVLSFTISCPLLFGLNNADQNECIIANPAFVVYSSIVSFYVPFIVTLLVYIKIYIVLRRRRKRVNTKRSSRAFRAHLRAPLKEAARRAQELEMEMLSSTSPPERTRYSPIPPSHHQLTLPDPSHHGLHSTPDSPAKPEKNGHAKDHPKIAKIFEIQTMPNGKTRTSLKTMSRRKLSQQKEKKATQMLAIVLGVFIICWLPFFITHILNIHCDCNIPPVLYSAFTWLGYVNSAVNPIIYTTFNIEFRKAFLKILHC
Procedure: Example-45: Determination of Ki Values at D2S Receptor
• Receptor source: Recombinant mammalian cells (CHO-K1) • Radioligand: [^3H]-Raclopride (80.8 Ci/mmol) • Final ligand concentration: 4 nM • Non-specific determinant: 0.1 mM Haloperidol • Reference compound: Haloperidol • Positive control: Haloperidol Incubation conditions: Reactions were carried out in buffer with pH 7.4 containing 50 mM Tris-HCl, 120 mM NaCl, 5 mM KCl, 5 mM MgCl2, 1 mM EDTA for 2 h at RT. The reaction was terminated by rapid vacuum filtration onto the glass fiber filters. Radioactivity trapped onto the filters was determined and compared to the control values in order to ascertain any interactions of the test compound(s) with cloned human dopamine D2s receptor binding site.

human 5-HT1A receptor = molecular target: T6, human 5-HT1A receptor (Homo sapiens, UniProt P08908); experiment: Determination of Ki values at 5-HT1A receptor ([3H]-8-Hydroxy DPAT radioligand binding); conditions: h5-HT1A, HEK293-EBNA, [3H]-8-Hydroxy DPAT 0.8 nM
T6 construct: expressed in transfected cells; host or cells: HEK293-EBNA
T6 sequence (P08908 1-422): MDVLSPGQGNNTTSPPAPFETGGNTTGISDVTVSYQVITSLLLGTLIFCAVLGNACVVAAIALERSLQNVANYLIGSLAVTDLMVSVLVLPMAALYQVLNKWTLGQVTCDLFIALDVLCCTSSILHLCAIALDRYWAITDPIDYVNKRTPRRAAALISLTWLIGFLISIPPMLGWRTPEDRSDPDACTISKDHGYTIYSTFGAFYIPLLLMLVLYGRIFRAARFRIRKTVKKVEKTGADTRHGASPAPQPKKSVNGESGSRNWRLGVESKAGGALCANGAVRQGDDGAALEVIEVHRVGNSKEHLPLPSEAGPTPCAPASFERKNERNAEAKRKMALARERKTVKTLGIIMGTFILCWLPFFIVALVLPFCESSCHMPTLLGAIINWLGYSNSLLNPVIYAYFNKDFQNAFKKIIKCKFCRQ
Procedure: Example-43: Determination of Ki Values at 5-HT1A Receptor
• Receptor source: Recombinant mammalian cells (HEK293-EBNA) • Radioligand: [^3H]-8-Hydroxy DPAT (200 Ci/mmol) • Final ligand concentration: 0.8 nM • Non-specific determinant: 0.1 mM U92016A • Reference compound: U92016A • Positive control: U92016A Incubation conditions: Reactions were carried out in buffer with pH 7.4 containing 50 mM Tris-HCl, 0.5 mM EDTA, 10 mM MgSO4, 0.1% Ascorbic acid for 2 h at RT. The reaction was terminated by rapid vacuum filtration onto the glass fiber filters. Radioactivity trapped onto the filters was determined and compared to the control values in order to ascertain any interactions of the test compound(s) with cloned human 5-HT1A receptor binding site.

Row | SMILES | Ki [1] | Ki (human 5-HT2A receptor) | Ki (human SERT) | Ki [2] | Ki [3] | Ki (human 5-HT1A receptor) | Reversal in reserpine induced DOPA accumulation (DOPA levels in striatum; 30 mg/kg, 1 h before sacrifice, striatum) | Increase in DOPA levels in striatum (DOPA levels in striatum; reserpine 5 mg/kg, about 18 h before sacrifice)
1 | CCCN1CCCC(c2cccc(O)c2)C1 (centres unmarked) [Example 3-PPP, 3-(3-hydroxyphenyl)-N-n-propylpiperidine] | – | – | – | – | – | – | 77% | –
2 | Cc1nnc(-c2csc(OCCCN3CCN(c4nsc5ccccc45)CC3)n2)o1 [Example-1, 3-(4-{3-[4-(5-Methyl-[1,3,4]oxadiazol-2-yl)-thiazol-2-yloxy]-propyl}-piperazin-1-yl)-benzo[d]isothiazole] | 8.8 nM | 0.35 nM | 54.3 nM | 12.5 nM | 0.51 nM | 0.1 nM | – | –
3 | COC(=O)[C@H]1[C@H]2C[C@@H]3c4[nH]c5cc(OC)ccc5c4CCN3C[C@H]2C[C@@H](OC(=O)c2cc(OC)c(OC)c(OC)c2)[C@@H]1OC [reserpine] | – | – | – | – | – | – | – | about 194%

Continued, in another order:

Row | Ki [1] | Ki (human 5-HT2A receptor) | Ki (human SERT) | Ki [2] | Ki [3] | Ki (human 5-HT1A receptor) | SMILES | Reversal in reserpine induced DOPA accumulation (DOPA levels in striatum; 30 mg/kg, 1 h before sacrifice, striatum) | Increase in DOPA levels in striatum (DOPA levels in striatum; reserpine 5 mg/kg, about 18 h before sacrifice)
4 | 4.2 nM | 0.5 nM | 217 nM | 44.1 nM | 1.5 nM | 0.4 nM | Cc1nc(-c2csc(OCCCN3CCN(c4nsc5ccccc45)CC3)n2)no1 [compound 10, 3-(4-{3-[4-(5-Methyl-[1,2,4]oxadiazol-3-yl)-thiazol-2-yloxy]-propyl}-piperazin-1-yl)-benzo[d]isothiazole oxalate] | – | –
5 | 1.8 nM | 0.01 nM | 18.8 nM | 5.7 nM | 0.4 nM | 0.3 nM | c1ccc2c(N3CCN(CCCOc4ccc(-c5cnco5)cn4)CC3)nsc2c1 [compound 22, 3-{4-[3-(5-Oxazol-5-yl-pyridin-2-yloxy)-propyl]-piperazin-1-yl}-benzo[d]isothiazole oxalate] | – | –
6 | 3.5 nM | 0.3 nM | 1670 nM | 1.5 nM | 0.7 nM | 1.8 nM | Cc1nnc(-c2csc(OCCCN3CCC(c4noc5cc(F)ccc45)CC3)n2)o1 [compound 24, 6-Fluoro-3-(1-{3-[4-(5-methyl-[1,3,4]oxadiazol-2-yl)-thiazol-2-yloxy]-propyl}-piperidin-4-yl)-benzo[d]isoxazole oxalate] | – | –
